By IC50 is commonly meant the concentration that gives 50% inhibition. The low end stands for higher potency, the high end for lower potency.

Here are results for three compounds from patent US8283373B2, “Inhibitors of cytosolic phospholipase A2” (Pfizer Inc., priority 2005, dated 2012).

One assay has as its target T1, cPLA2α (Homo sapiens, UniProt P47712).
T1 sequence (P47712 1-749): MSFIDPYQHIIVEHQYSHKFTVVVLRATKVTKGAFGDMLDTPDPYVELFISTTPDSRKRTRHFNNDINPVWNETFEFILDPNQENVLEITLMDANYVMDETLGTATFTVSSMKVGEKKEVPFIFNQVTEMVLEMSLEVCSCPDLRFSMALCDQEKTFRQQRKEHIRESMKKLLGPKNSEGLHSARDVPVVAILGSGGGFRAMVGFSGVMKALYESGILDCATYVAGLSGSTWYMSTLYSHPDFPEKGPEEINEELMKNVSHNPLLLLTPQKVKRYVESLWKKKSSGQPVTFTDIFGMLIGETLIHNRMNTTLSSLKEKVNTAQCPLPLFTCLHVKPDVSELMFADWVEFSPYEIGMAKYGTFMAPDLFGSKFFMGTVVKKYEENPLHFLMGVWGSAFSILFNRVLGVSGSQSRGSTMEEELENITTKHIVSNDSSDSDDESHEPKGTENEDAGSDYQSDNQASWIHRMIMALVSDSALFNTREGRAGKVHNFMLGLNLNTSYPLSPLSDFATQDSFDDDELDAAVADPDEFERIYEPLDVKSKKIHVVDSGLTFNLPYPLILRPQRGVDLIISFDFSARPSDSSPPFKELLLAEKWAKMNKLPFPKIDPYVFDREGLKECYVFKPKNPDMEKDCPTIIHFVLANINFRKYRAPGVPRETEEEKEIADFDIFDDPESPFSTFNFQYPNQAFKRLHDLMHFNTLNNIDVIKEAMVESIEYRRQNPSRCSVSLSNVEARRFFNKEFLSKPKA
Nature of the assay: GLU Micelle Assay. Type of assay: biochemical. The essentials: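 Fluorogenic micelle assay with 1 μg/ml cPLA2α and 90 μM GLU substrate plus 120 μM DTPC in 940 μM Triton X-100, 50 mM Hepes pH 7.4, 0.3 mM EDTA, 1 mM CaCl2, 300 mM KCl. Fluorescence (ex 355/em 460) was read every 4 min for 84 min. Percent inhibition came from slopes relative to positive and negative controls.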

A further assay relates to TXB2. Nature of the assay: Rat Whole Blood Assay (A23187-stimulated TXB2). It counts as cell-based. To be noted: Rattus norvegicus; A23187 5 μM. The essentials:
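Heparinized male Sprague-Dawley rat blood pre-incubated 15 min at 37 °C with compound or DMSO, then stimulated with 5 μM (final) A23187 for 10 min at 37 °C. Stopped with 20 mM EDTA; TXB2 in methanol-extracted plasma measured by ELISA.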

Assay [1] deals with Human platelet aggregation. Nature of the assay: Platelet Function Analyzer (PFA-100) study. It counts as cell-based. As to conditions: whole human blood. The procedure:
Human platelet aggregation was studied using the platelet function analyzer (PFA-100®). Human blood was collected from volunteers who had denied taking any platelet inhibitory medications over the previous two weeks. Blood was collected in 3.2% sodium citrate Vacutainer tubes (Becton Dickinson). Tubes were inverted 5 times and the blood was transferred to 15 ml polypropylene conical tubes. […] Tubes were inverted 10 times to mix, and allowed to sit at room temperature for 10 minutes prior to run in PFA-100. The manufacturers protocol was followed for the PFA-100 using Collagen/Epinephrine cartridges (0.5% DMSO alone in whole blood gave closure times of 125+/−13.9 seconds). Maximum closure time is 300 seconds, as set by the manufacturer.
All compounds were efficacious in the platelet function assay.

Assay [2] concerns serum thromboxane B2. Nature of the assay: Thromboxane B2 levels in rats with FeCl3 induced thrombosis. Type of assay: in vivo, rat. As to conditions: rats subjected to ferric chloride injury, ELISA. The procedure:
Blood was collected from rats that were dosed with vehicle, the compound of Example 14 or the compound of Example 25, and subjected to the ferric chloride Injury protocol above. Blood was collected from the vena cava and blood coagulation was allowed to take place for 1 hour at 37 degree Celsius. Serum was then isolated and serum thromboxane B2 levels were determined by ELISA.
(In an ELISA, binding on a coated surface is turned into a signal by an enzyme label.)

The test system of assay [3] is experimental autoimmune encephalomyelitis (EAE). Nature of the assay: Experimental autoimmune encephalomyelitis (EAE) model of multiple sclerosis. Type of assay: in vivo, mouse. To be noted: administered from the time of immunization, or in mice with or close to EAE. The procedure: Six groups of B6 mice were immunized with MOG/CFA and injected with pertussis toxin to induce experimental autoimmune encephalomyelitis (EAE), an animal model of Multiple sclerosis. Three groups of mice were treated with vehicle, 4-{3-[1-benzhydryl-5-chloro-2-(2-{[(2,6-dimethylbenzyl)sulfonyl]amino}ethyl)-1H-indol-3-yl]propyl}benzoic acid (Compound A), or 4-{2-[1-benzhydryl-5-chloro-2-(2-{[(3,4-dichlorobenzyl)sulfonyl]amino}-ethyl)-1H-indol-3-yl]ethoxy}benzoic acid (Compound B) from the day of Immunization (orally, 100 mg/kg, twice/day). Another three groups of mice were treated with vehicle, Compound A or Compound B starting on the day of EAE onset (day 15) (orally, 100 mg/kg, twice/day). […] The results are shown in the Table below, wherein mean clinical score is a mean of clinical evaluation of each animal for that particular day.
Animals are Scored as Follows:
• 0—no clinical signs of EAE (no paralysis) • 1—paralysis of tail • 2—paralysis of tail and partial hind leg paralysis • 3—paralysis of tail and complete hind leg paralysis • 4—paralysis of tail, complete hind leg paralysis and a partial front leg paralysis • 5—moribund animal (all four limbs paralyzed, lack of responsiveness, these mice were immediately euthanized).
In addition, the compounds of Examples 14 and 25 were also found to be efficacious in the mouse experimental autoimmune encephalomyelitis (EAE) model of multiple sclerosis. As shown by the data in the Table below, these compounds led to a delayed onset of disease and reduced severity of disease when administered orally in doses as low as 2.5 mg/kg.

Assay [4] concerns serum thromboxane B2. Nature of the assay: Thromboxane B2 levels in the ApoE KO mouse model. Type of assay: in vivo. As to conditions: ApoE KO mice, 10 mg/kg by oral gavage; vehicle 267.9±34.3. The procedure: Blood was collected through the retro-orbital siunus and left to coagulate at 37° C. for one hour. Serum was then isolated and assayed for thromboxane B2 by ELISA.
In a separate experiment, ApoE KO mice were dosed with vehicle or the compound of Example 25 at 10 mg/kg by oral gavage. Blood was collected through the retro-orbital siunus and left to coagulate at 37° C. for one hour. Serum was then isolated and assayed for thromboxane B2 by ELISA.

Assay [5] relates to FeCl3-induced arterial thrombosis. Nature of the assay: FeCl3-induced model of arterial thrombosis. It counts as in vivo. To be noted: rat, 25 mg/kg oral gavage 2 h before FeCl3 injury. The method, then:
Two hours prior to induction of vascular injury, Sprague Dawley outbreed rats (80-100 gram of body weight) received 4-(3-{5-chloro-1-(diphenylmethyl)-2-[2-({[2-fluoro-6-(trifluoromethyl)benzyl]sulfonyl}amino)ethyl]-1H-indol-3-yl}propyl)benzoic acid (Example 14) or 4-(3-{5-chloro-1-(diphenylmethyl)-2-[2-({[2-(trifluoromethoxy)benzyl]sulfonyl}amino)ethyl]-1H-indol-3-yl}propyl)benzoic acid (Example 25) at a dose of 25 mg/kg by oral gavage. The total volume of gavage was 0.5 ml. The control group of animals had been treated with only vehicle. Fifteen minutes before vascular injury rats were anesthetized by an intramuscular injection of a ketamine/xylazyne mixture. Following anesthesia the left carotid artery was dissected and exposed for further measurements. For induction of prothrombotic injury, a round piece of filter paper (2 mm in diameter) soaked in 10% of FeCl3 solution was applied onto the wall of the exposed vessel. After 5 minutes the filter paper was removed and the 1PRB perivasular Doppler flow probe (Transonic Systems Inc.) was secured around the carotid artery to measure blood flow. Blood flow was recorded for a total period of 30 minutes using Transonic Flow Meter (model TS420, Transonic Systems Inc.) and Windaq data acquisition software.

With `O=C(O)c1ccc(CCCc2c(CCNS(=O)(=O)Cc3ccccc3OC(F)(F)F)n(C(c3ccccc3)c3ccccc3)c3ccc(Cl)cc23)cc1` [Example 25, 4-(3-{5-chloro-1-(diphenylmethyl)-2-[2-({[2-(trifluoromethoxy)benzyl]sulfonyl}amino)ethyl]-1H-indol-3-yl}propyl)benzoic acid], the IC50 against cPLA2α came to 13 nM; in the assay on TXB2 it was 30 nM. The “platelet aggregation in human blood, in vitro (PFA-100, FIG. 1)” value in assay [1] is on record as “inhibition of platelet aggregation”. The “efficacy in PFA-100 platelet function assay” value in assay [1] (at concentrations as low as 0.3 μg/ml) is “efficacious”. Further, the “serum thromboxane B2 levels (FIG. 3)” value with serum thromboxane B2 [2] is given as “reduction of serum thromboxane B2 levels”. For the same compound, the “prevention of EAE / reduction of clinical severity” value in assay [3] is “can prevent EAE”. Moreover, in the assay on serum thromboxane B2 [4], the “serum Thromboxane concentration” value stood at 9.4 ± 5.0 ng/mL.

As for `O=C(O)c1ccc(CCCc2c(CCNS(=O)(=O)CCc3ccccc3C(F)(F)F)n(C(c3ccccc3)c3ccccc3)c3ccc(Cl)cc23)cc1` [Example 15, 4-[3-(5-chloro-1-(diphenylmethyl)-2-{2-[({2-[2-(trifluoromethyl)phenyl]ethyl}sulfonyl)amino]ethyl}-1H-indol-3-yl)propyl]benzoic acid], the IC50 stood at 68 nM on cPLA2α and 120 nM in the assay on TXB2. For the same compound, the “blood flow and thrombus formation (FIG. 2)” value in assay [5] was “improved blood flow and reduction of thrombus formation”.

For the compound `O=C(O)c1ccc(CCCc2c(CCNS(=O)(=O)Cc3c(F)cccc3C(F)(F)F)n(C(c3ccccc3)c3ccccc3)c3ccc(Cl)cc23)cc1` [Example 14, 4-(3-{5-chloro-1-(diphenylmethyl)-2-[2-({[2-fluoro-6-(trifluoromethyl)benzyl]sulfonyl}amino)ethyl]-1H-indol-3-yl}propyl)benzoic acid], the IC50 at cPLA2α came out at 30 nM; in the assay with TXB2, 20 nM. Besides, the “platelet aggregation in human blood, in vitro (PFA-100, FIG. 1)” value in assay [1] is “inhibition of platelet aggregation”. Besides, the PFA-100 closure time entry in assay [1] (Collagen/Epinephrine cartridges, 1.25 μg/ml) is reported as “increased closure time”. Also, in assay [5], the “blood flow and thrombus formation (FIG. 2)” value is “improved blood flow and reduction of thrombus formation”. The “serum thromboxane B2 levels (FIG. 3)” value in the assay on serum thromboxane B2 [2] is given as “reduction of serum thromboxane B2 levels”. Besides, in assay [3], the “prevention of EAE / reduction of clinical severity” value is “can prevent EAE”.
